Test results taken from ChEMBL document CHEMBL5131397, “Discovery and Optimization of Pyrazole Amides as Inhibitors of ELOVL1” (J Med Chem, 2021).
pIC50: −log10 of the molar value. Activity calls are given as the source filed them. The rule behind the calls is not given here.

What was measured:
[1] = Reduction in C26:0 LPC level in ABCD1 knock out mouse blood at 0.5 mg/kg, po qd for 105 days by LC-MS/MS analysis relative to control; assay type: functional; design: scale not given: the % may be the effect or the level left; conditions: time 105 day
[2] = Toxicity in Cynomolgus monkey assessed as dry and red scaly areas on abdomen at 5 to 50 mg/kg/day, po administered for 14 days by macroscopic observation analysis; assay type: organism-based, Macaca fascicularis; conditions: in vivo, 336 h, dose 5-50 mg/kg/day, time 14 day
[3] = Reduction in C26:0 LPC level in ABCD1 knock out mouse CNS at 4 mg/kg, po qd measured after 6 months of dosing by LC-MS/MS analysis; assay type: functional; design: scale not given: the % may be the effect or the level left; conditions: 4380 h
Fibroblast [4] = assay: Reduction in C26:0 lysophosphatidyl choline synthesis in primary human CALD patient-derived fibroblast incubated for 48 hrs; assay type: functional, cell-based; conditions: DDE = dose-dependent effect
[5] = Half life in Cynomolgus monkey at 1 mg/kg, iv upto 48 hrs by LC/MS/MS analysis; assay type: ADME, organism-based, Macaca fascicularis; conditions: in vivo
[6] = target: T1, Very long chain fatty acid elongase 7 (Homo sapiens, UniProt A1L3X0); assay: Inhibition of ELOVL7 (unknown origin) using C18-acyl-CoA as substrate by radiometric enzyme assay
T1 sequence (A1L3X0 whole entry): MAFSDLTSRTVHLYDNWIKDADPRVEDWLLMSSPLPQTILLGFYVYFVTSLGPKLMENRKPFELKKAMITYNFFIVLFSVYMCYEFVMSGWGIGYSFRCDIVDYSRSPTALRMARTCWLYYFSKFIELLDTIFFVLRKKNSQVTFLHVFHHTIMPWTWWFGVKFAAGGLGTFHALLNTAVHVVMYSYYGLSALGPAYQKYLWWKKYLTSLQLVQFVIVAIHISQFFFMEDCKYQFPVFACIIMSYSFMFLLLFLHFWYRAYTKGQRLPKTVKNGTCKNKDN

[7] = Reduction in C26:0/C16:0 LPC level in ABCD1 knock out mouse CNS at 4 mg/kg, po qd measured after 6 months of dosing by LC-MS/MS analysis; assay type: functional; design: scale not given: the % may be the effect or the level left; conditions: 4380 h
[8] = Toxicity in juvenile Sprague-Dawley rat assessed as corneal mineralization at 5 to 75 mg/kg/day, po treatment started from postnatal day 18 to 114 days; assay type: organism-based; conditions: in vivo, dose lower 5 mg/kg/day, time lower 18 day, dose upper 75 mg/kg/day, time upper 114 day
[9] = target: T2, Very long chain fatty acid elongase 1 (Homo sapiens, UniProt Q9BW60); assay: Inhibition of ELOVL1 in human HEK293 cells assessed as reduction of C26:0 VLCFA synthesis incubated for 48 hrs by cellular assay; assay type: cell-based
T2 sequence (Q9BW60 whole entry): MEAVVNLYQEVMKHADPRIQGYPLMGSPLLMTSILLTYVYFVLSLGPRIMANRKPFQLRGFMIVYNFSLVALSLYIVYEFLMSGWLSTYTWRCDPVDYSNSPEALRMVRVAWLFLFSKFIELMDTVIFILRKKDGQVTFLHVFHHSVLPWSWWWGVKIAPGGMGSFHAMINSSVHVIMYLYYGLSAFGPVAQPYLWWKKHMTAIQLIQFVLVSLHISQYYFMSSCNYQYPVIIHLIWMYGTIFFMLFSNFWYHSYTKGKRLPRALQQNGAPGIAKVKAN

Fibroblast [10] = assay: Reduction in C26:0/C16:0 lysophosphatidyl choline levels in healthy donor-derived human fibroblast incubated for 48 hrs; assay type: functional, cell-based
[11] = Reduction in C26:0/C16:0 LPC level in ABCD1 knock out mouse CNS at 20 mg/kg, po qd measured after 8 months of dosing by LC-MS/MS analysis; assay type: functional; design: scale not given: the % may be the effect or the level left; conditions: 5840 h
[12] = Toxicity in telemetry-implanted Cynomolgus monkey assessed as higher baseline beta EEG activity at 5 to 20 mg/kg/day,NG administered for 7 days; assay type: organism-based, Macaca fascicularis; conditions: in vivo, po, 168 h, dose 5-20 mg/kg/day, time 7 day
[13] = target: T2, Very long chain fatty acid elongase 1; assay: Inhibition of ELOVL1 (unknown origin) using C22-acyl-CoA as substrate by radiometric enzyme assay
[14] = Plasma protein binding in human at 5 uM; assay type: ADME, cell-free; conditions: read-out: PPB (converted)
[15] = target: T2, Very long chain fatty acid elongase 1; assay: Inhibition of ELOVL1 in Het […] 2 patient-derived human lymphocyte assessed as reduction of C26:0 VLCFA synthesis incubated for 48 hrs by cellular assay; assay type: cell-based
[16] = Toxicity in Sprague-Dawley rat assessed as decrease in body weight at 5 to 50 mg/kg/day, po administered for 2 weeks; assay type: organism-based; conditions: in vivo, 336 h, dose 5-50 mg/kg/day
[17] = Toxicity in Sprague-Dawley rat assessed as corneal abnormalities at 5 mg/kg/day, po administered for 8 weeks measured after cessation of dosing; assay type: organism-based; conditions: in vivo, 1344 h
[18] = Toxicity in Cynomolgus monkey assessed as minimal focal gliosis at 20 to 50 mg/kg/day, po administered for 14 days; assay type: organism-based, Macaca fascicularis; conditions: in vivo, 336 h, dose 20-50 mg/kg/day, time 14 day
[19] = Tmax in Cynomolgus monkey at 3 mg/kg, po upto 24 hrs by LC/MS/MS analysis; assay type: ADME, organism-based, Macaca fascicularis; conditions: in vivo
[20] = target: T2, Very long chain fatty acid elongase 1; assay: Inhibition of ELOVL1 in AMN 1 patient-derived fibroblast assessed as reduction of C26:0 VLCFA synthesis incubated for 48 hrs by cellular assay; assay type: cell-based
[21] = target: T3, Very long chain fatty acid elongase 4 (Homo sapiens, UniProt Q9GZR5); assay: Inhibition of ELOVL4 (unknown origin) in presence of C26-acyl-CoA by radiometric enzyme assay
T3 sequence (Q9GZR5 whole entry): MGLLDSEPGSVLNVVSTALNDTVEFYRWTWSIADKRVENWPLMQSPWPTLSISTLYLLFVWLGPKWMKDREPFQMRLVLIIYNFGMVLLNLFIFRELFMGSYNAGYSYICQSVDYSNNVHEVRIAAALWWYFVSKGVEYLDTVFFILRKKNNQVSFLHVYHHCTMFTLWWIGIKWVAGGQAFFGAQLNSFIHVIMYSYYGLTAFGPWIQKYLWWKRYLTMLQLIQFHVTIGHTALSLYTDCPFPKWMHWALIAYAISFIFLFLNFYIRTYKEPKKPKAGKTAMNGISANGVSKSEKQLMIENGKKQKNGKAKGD

[22] = Tmax in Beagle dog at 3 mg/kg, po upto 24 hrs by LC/MS/MS analysis; assay type: ADME, organism-based, Canis lupus familiaris; conditions: in vivo
[23] = Reduction in C26:0/C16:0 LPC level in wild-type Sprague-Dawley rat at 300 mg/kg, po qd treated for 7 days by LC-MS/MS analysis; assay type: functional; design: scale not given: the % may be the effect or the level left; conditions: time 7 day
[24] = Toxicity in ABCD1 knock out mouse assessed as noticeable adverse effects at 8 to 32 mg/kg, po qd treated for 6 months; assay type: organism-based; conditions: in vivo, 4380 h, dose 8-32 mg/kg
[25] = Toxicity in juvenile Sprague-Dawley rat assessed as clonic convulsions 5 to 75 mg/kg/day, po treatment started from postnatal day 75 to 114 days; assay type: organism-based; conditions: in vivo, dose lower 5 mg/kg/day, time lower 75 day, dose upper 75 mg/kg/day, time upper 114 day
[26] = Toxicity in juvenile Sprague-Dawley rat assessed as corneal lesions at 5 to 75 mg/kg/day, po treatment started from postnatal day 18 to 114 days; assay type: organism-based; conditions: in vivo, dose lower 5 mg/kg/day, time lower 18 day, dose upper 75 mg/kg/day, time upper 114 day
[27] = target: T2, Very long chain fatty acid elongase 1; assay: Inhibition of ELOVL1 in CALD patient-derived human fibroblast assessed as reduction of C26:0 VLCFA synthesis incubated for 48 hrs by cellular assay; assay type: cell-based

For `O=C(Nc1ccn(-c2ccnc(F)c2)n1)C1(c2ccccc2F)CC1`, the Activity [1] was 50%, the Activity [2] was “Toxic” and the Activity [3] was 57%. The Activity (Fibroblast [4]) was “Dde”, the half-life [5] was 324 min and the pIC50 [6] was less than 3.30. The Activity [7] was 57%, the Activity [8] was “Toxic” and the pIC50 [9] was 7.89. The Activity (Fibroblast [10]) was “Active”, the Activity [11] was 65% and the Activity [12] was “Toxic”. The pIC50 [13] was 6.05, the fraction unbound at 5 µM [14] was 0.062 and the pIC50 [15] was 8.05. The Activity [16] was “Toxic”, the Activity [17] was “Toxic” and the Activity [18] was “Toxic”. It also gave a Tmax [19] of 2.3 h, a pIC50 [20] of 7.37 and a pIC50 [21] of less than 3.70. The Tmax [22] was 30 min, the Activity [23] was 85% and the Activity [24] was “Non-Toxic”. For the same compound, the Activity [25] was “Toxic”, the Activity [26] was “Toxic” and the pIC50 [27] was 7.70.
